Test results published in patent publication US20260130933A1, “PHARMACEUTICAL COMPOSITION FOR PREVENTION OR TREATMENT OF NEPHROPATHY AND/OR DIABETES MELLITUS, COMPRISING ENAVOGLIFLOZIN” (DAEWOONG PHARMACEUTICAL CO., LTD., priority 2022, published 2026).

Assay: Example 2: phase 3 trial, enavogliflozin 0.3 mg vs dapagliflozin 10 mg once a day for 24 weeks added to metformin in patients with type 2 diabetes (same efficacy, exploratory and safety endpoints)
Assay type: in vivo, human
Protocol: Subjects who met the inclusion/exclusion criteria were administered a placebo of the clinical trial drug under single-blind (subject blinding) conditions during a 2-week run-in period while continuing to receive metformin. […] The randomized subjects were administered two tablets of the clinical trial drug for each administration group once a day, and then visited the institution at weeks 6, 12, 18, and 24 during the 24-week administration period to conduct efficacy and safety evaluations.
• 1. Change in HbA1c at week 24 after administration of clinical trial drug compared to Visit 2 (randomization)
• 1. Change in HbA1c at each time point of weeks 6, 12, and 18 after administration of clinical trial drug compared to Visit 2 (randomization) • 2. Change in FPG at each time point of weeks 6, 12, 18, and 24 after administration of clinical trial drug compared to Visit 2 (randomization) • 3. Proportion of subjects achieving HbA1c<7% at each time point of weeks 6, 12, 18, and 24 after administration of clinical trial drug • 4. Proportion of subjects achieving HbA1c<6.5% at each time point of weeks 6, 12, 18, and 24 after administration of clinical trial drug • 5. Proportion of subjects achieving therapeutic response (HbA1c change (HbA1c at Visit 2-HbA1c at each evaluation time point)>0.5% or HbA1c<7% at each evaluation time point compared to Visit 2 (randomization)) at each time point of weeks 6, 12, 18 and 24 after administration of clinical trial drug
• 1. Change in fasting c-peptide at each time point of weeks 6, 12, 18, and 24 after administration of clinical trial drug compared to Visit 2 (randomization) • 2. Change in body weight at each time point of weeks 6, 12, 18, and 24 after administration of clinical trial drug compared to Visit 2 (randomization) • 3. Change in fasting lipid concentration (total cholesterol, LDL-C, HDL-C, and triglycerides) at each time point of weeks 6, 12, 18, and 24 after administration of clinical trial drug compared to Visit 2 (randomization) • 4. Changes in systolic or diastolic blood pressure at each time point of weeks 6, 12, 18, and 24 after administration of clinical trial drug compared to Visit 2 (randomization) • 5. Changes in β-cell function and insulin resistance measured by HOMA-β and HOMA-IR at each time point of weeks 6, 12, 18, and 24 after administration of clinical trial drug compared to Visit 2 (randomization) • 6. Changes in renal function-related indicators (UACR, UGCR) measured by UACR at each time point of weeks 6, 12, 18, and 24 after administration of clinical trial drug compared to Visit 2 (randomization) • 7. Changes in obesity-related indicators (adiponectin, leptin) at each time point of weeks 6, 12, 18, and 24 after administration of clinical trial drug compared to Visit 2 (randomization)

[1] = Week 24, mPPS1, enavogliflozin minus dapagliflozin
[2] = Week 24, mPPS2, enavogliflozin minus dapagliflozin
[3] = week 6, modified per-protocol set 1, enavogliflozin 0.3 mg, dapagliflozin 10 mg
[4] = week 6, per-protocol set, enavogliflozin 0.3 mg vs dapagliflozin 10 mg
[5] = week 6, per-protocol set, enavogliflozin 0.3 mg, dapagliflozin 10 mg

## OC[C@H]1O[C@@H](c2cc(Cc3ccc(C4CC4)cc3)c(Cl)c3c2CCO3)[C@H](O)[C@@H](O)[C@@H]1O [Enavogliflozin, (2S,3R,4R,5S,6R)-2-(7-chloro-6 (4-cyclopropylbenzyl)-2,3-dihydrobenzofuran-4-yl)-6-(hydroxymethyl)tetrahydro-2H-pyran-3,4,5-triol]
Week 24, mPPS1
  Triglycerides, Mean (SD): 119.62(58.93) mg/dL
  Triglycerides, Median: 104.00 mg/dL
[1]
  HDL-C change from baseline, LS mean difference: -0.14 mg/dL
  LDL-C change from baseline, LS mean difference: 0.71 mg/dL
  triglycerides change from baseline, LS mean difference: 1.63 mg/dL
Week 24, mPPS2
  Diastolic blood pressure change from baseline, ANCOVA LS mean (SE): −5.41 mmHg
  Diastolic blood pressure change from baseline, Mean (SD): −5.40 mmHg
  Diastolic blood pressure change from baseline, Median: −6.00 mmHg
  Diastolic blood pressure, Mean (SD): 71.65 mmHg
  Diastolic blood pressure, Median: 71.00 mmHg
  Systolic blood pressure change from baseline, ANCOVA LS mean (SE): −5.93(1.01) mmHg
  Systolic blood pressure change from baseline, Mean (SD): −6.34(9.75) mmHg
  Systolic blood pressure change from baseline, Median: −5.00 mmHg
  Systolic blood pressure, Mean (SD): 123.38(12.55) mmHg
  Systolic blood pressure, Median: 122.00 mmHg
[2]
  diastolic blood pressure change from baseline, LS mean difference: −1.15 mmHg
  systolic blood pressure change from baseline, LS mean difference: 0.63 mmHg
Week 6
  FPG change from baseline, LS mean (SE): −28.07(2.14) mg/dL
  HOMA-IR change from baseline, LS mean (SE): −1.47(0.14)
  HOMA-β change from baseline, LS mean (SE): 7.22(5.44)
  HbA1c change from baseline, LS mean (SE): −0.68(0.04) % p
  LDL-C change from baseline, LS mean (SE): −0.09(1.89) mg/dL
  Subjects achieving HbA1c target of <7%: (53.68) %
  Subjects achieving HbA1c<6.5%: 12.63%
  Subjects achieving therapeutic response (HbA1c change >0.5% or HbA1c<7%): 78.95%
  UACR change from baseline, LS mean (SE): −12.75(10.48) g/kg
  UGCR change from baseline, LS mean (SE): 65.72(2.70) mg/mg
  diastolic blood pressure change from baseline, LS mean (SE): −2.75(0.69) mmHg
  fasting c-peptide change from baseline, LS mean (SE): −0.07(0.02) ng/ml
  leptin change from baseline, LS mean (SE): −2.43(0.46) ng/mL
Week 6, vs dapagliflozin
  FPG change from baseline, LS mean difference: -4.27 mg/dL
  HDL-C change from baseline, LS mean difference: -0.49 mg/dL
  HOMA-IR change from baseline, LS mean difference: −0.16
  HOMA-β change from baseline, LS mean difference: 9.01
  HbA1c change from baseline, LS mean difference: −0.05 % p
  LDL-C change from baseline, LS mean difference: -4.29 mg/dL
  Odds ratio for achieving HbA1c<6.5%: 0.83
  Odds ratio for achieving HbA1c<7%: 1.06
  Odds ratio for achieving therapeutic response: 0.98
  UACR change from baseline, LS mean difference: −20.88
  UGCR change from baseline, LS mean difference: 15.62 mg/mg
  body weight change from baseline, LS mean difference: 0.04 kg
  diastolic blood pressure change from baseline, LS mean difference: −1.28 mmHg
  fasting c-peptide change from baseline, LS mean difference: 0.00 ng/mL
  leptin change from baseline, LS mean difference: -0.81 ng/mL
  systolic blood pressure change from baseline, LS mean difference: −0.58 mmHg
  total cholesterol change from baseline, LS mean difference: -2.10 mg/dL
  triglyceride change from baseline, LS mean difference: 18.76 mg/dL
Week 6, listed as enavogliflozin
  Subjects achieving HbA1c target of <7%: 53.68%
Week 6, modified per-protocol set 1, enavogliflozin 0.3 mg vs dapagliflozin 10 mg
  Change from baseline in total cholesterol, ANCOVA LS mean difference: -2.10 mg/dL
[3]
  Change from baseline in Total cholesterol, ANCOVA LS mean (SE): 4.77(2.19) mg/dL
  Change from baseline in Total cholesterol, Mean (SD): 4.34(17.75) mg/dL
  Change from baseline in total cholesterol, Median: 3.00 mg/dL
  fasting Total cholesterol, Mean (SD): 155.77(35.37) mg/dL
  fasting Total cholesterol, Median: 147.00 mg/dL
[4]
  Change from baseline in FPG, ANCOVA LS mean difference: -4.27 mg/dL
  Change from baseline in HbA1c, ANCOVA LS mean difference: −0.05 % p
  Change from baseline in body weight, ANCOVA LS mean difference: 0.04 kg
  Change from baseline in fasting c-peptide, ANCOVA LS mean difference: 0.00 ng/mL
  Odds ratio for achieving HbA1c target of <6.5%, logistic regression model: 0.83
  Odds ratio for achieving therapeutic glycemic response, logistic regression model: 0.98
[5]
  Change from baseline in FPG, ANCOVA LS mean (SE): -28.07 mg/dL
  Change from baseline in FPG, Mean (SD): -26.91 mg/dL
  Change from baseline in FPG, Median: -27.00 mg/dL
  Change from baseline in HbA1c, ANCOVA LS mean (SE): −0.68 % p
  Change from baseline in HbA1c, Mean (SD): −0.62 % p
  Change from baseline in HbA1c, Median: −0.57 % p
  Change from baseline in body weight, ANCOVA LS mean (SE): −1.56(0.20) kg
  Change from baseline in body weight, Mean (SD): −1.56(2.30) kg
  Change from baseline in body weight, Median: -1.70 kg
